# Measurements published in patent US7833722B2, “Ligands for G protein-coupled receptor protein and use thereof” (Takeda Pharmaceutical Company Limited, priority 2004, dated 2010).
# Target: GPR17-GFP fusion protein (UniProt P42212+Q13304, F64L/I167T/S65C)
# Experiment: Movement of GPR17-GFP fusion protein expressed in CHO cells into cells (confocal microscope)
# Format: cell-based, human
# Details: 100 μM, 45 minutes, 37° C.
compound,measurement,value
"NCC(=O)CCC(=O)O [ALA, 5-aminolevulinic acid]",localization of GPR17-GFP fusion protein (fluorescent images of GFP),moved in part to the cytoplasm
